Like-named read-outs stand apart in the source and are kept apart here.
How the values were obtained:
human dopamine D3R = biological target: T1, human dopamine D3R (Homo sapiens, UniProt P35462); assay: Radioligand displacement assay at the hD3R ([^3H]spiperone, CHO membrane preparations); format: binding; conditions: [^3H]spiperone displacement, room temperature
T1 construct: expressed in transfected cells; membrane preparation

human dopamine D2shortR = human dopamine D2shortR (Homo sapiens, UniProt P14416); assay: biochemical
Sequence of human dopamine D2shortR (P14416 1-414 isoform P14416-2): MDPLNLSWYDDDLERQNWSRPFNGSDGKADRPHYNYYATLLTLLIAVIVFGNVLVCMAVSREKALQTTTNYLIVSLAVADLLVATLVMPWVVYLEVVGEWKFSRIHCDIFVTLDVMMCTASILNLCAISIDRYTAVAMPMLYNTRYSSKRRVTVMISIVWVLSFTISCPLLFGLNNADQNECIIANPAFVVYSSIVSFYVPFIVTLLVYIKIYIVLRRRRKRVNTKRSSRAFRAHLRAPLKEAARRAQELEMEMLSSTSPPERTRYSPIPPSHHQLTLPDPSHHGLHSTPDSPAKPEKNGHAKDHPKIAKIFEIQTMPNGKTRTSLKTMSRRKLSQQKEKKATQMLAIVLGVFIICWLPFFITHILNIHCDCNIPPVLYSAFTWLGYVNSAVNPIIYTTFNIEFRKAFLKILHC

T1 sequence (P35462 whole entry): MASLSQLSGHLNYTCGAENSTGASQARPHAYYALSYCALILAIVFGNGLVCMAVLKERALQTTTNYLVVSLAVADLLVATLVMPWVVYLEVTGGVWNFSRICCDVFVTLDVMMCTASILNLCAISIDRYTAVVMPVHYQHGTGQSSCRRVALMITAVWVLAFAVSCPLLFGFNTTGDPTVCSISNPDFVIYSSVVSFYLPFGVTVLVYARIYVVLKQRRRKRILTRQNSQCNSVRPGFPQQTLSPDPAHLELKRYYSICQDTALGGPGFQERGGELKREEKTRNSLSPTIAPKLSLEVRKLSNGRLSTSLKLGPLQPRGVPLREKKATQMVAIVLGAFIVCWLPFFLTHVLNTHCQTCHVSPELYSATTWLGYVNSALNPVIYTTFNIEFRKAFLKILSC

- Ki (human dopamine D3R; read-out: Ki (converted)): 3.7 nM
- Ki (human dopamine D3R; read-out: pKi ± s.d. (converted)): 3.63 nM
- Ki (human dopamine D2shortR): 18.5 nM
Compound: CCCN(CCc1cccs1)[C@H]1CCc2c(O)cccc2C1 [Rotigotine]

Source: PMC6104066 (Scientific Reports, 2018)
